According to patent US11180511B2, “Diagnosis, treatment and prevention of neurotensin receptor-related conditions” (Friedrich-Alexander-Universitat Erlangen-Nurnberg, priority 2016, dated 2021):
Each block holds one molecule with its values, some of them ahead of it.

How the values were obtained:
hNTS1 = hNTS1 (Homo sapiens, UniProt P30989); test: competitive radioligand binding, hNTS1; details: [^3H]NT; CHO
Protocol: (§1) Affinities for NTS1 and NTS2 as well as for dopaminergic and serotonergic receptors were determined in competitive radioligand binding assays using appropriate radioligands as shown in Table 1.

hNTS2 = hNTS2 (Homo sapiens, UniProt O95665); test: competitive radioligand binding, hNTS2; details: [^3H]NT (8-13); HEK
Sequence of hNTS2 (O95665 whole entry): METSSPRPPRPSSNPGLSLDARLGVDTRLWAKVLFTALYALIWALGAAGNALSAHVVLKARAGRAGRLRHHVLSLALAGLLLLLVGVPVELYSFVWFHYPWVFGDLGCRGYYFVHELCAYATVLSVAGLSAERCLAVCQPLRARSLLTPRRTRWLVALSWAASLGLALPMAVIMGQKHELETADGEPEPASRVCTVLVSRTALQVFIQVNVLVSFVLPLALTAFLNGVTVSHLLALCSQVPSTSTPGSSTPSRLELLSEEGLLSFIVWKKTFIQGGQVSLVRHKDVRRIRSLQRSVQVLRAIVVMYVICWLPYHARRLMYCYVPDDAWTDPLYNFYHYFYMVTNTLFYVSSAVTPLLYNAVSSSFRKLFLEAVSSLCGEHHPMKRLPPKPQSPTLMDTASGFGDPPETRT
Protocol: as §1

hD1 = hD1 (Homo sapiens, UniProt P21728); test: competitive radioligand binding, hD1; details: [^3H] SCH 23990
Sequence of hD1 (P21728 whole entry): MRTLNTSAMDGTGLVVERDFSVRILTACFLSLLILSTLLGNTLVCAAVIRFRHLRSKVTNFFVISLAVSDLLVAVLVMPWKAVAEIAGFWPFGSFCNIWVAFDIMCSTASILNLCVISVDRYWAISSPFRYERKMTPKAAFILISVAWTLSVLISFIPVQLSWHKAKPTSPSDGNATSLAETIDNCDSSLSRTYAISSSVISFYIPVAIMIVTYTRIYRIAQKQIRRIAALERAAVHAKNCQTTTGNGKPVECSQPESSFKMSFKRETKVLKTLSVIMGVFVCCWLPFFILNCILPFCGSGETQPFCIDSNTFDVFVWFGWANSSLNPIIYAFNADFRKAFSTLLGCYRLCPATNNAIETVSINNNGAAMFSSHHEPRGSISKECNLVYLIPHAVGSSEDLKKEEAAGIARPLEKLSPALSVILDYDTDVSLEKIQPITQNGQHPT
Protocol: as §1

hD5 = hD5 (Homo sapiens, UniProt P21918); test: competitive radioligand binding, hD5; details: [^3H] SCH 23990
Sequence of hD5 (P21918 whole entry): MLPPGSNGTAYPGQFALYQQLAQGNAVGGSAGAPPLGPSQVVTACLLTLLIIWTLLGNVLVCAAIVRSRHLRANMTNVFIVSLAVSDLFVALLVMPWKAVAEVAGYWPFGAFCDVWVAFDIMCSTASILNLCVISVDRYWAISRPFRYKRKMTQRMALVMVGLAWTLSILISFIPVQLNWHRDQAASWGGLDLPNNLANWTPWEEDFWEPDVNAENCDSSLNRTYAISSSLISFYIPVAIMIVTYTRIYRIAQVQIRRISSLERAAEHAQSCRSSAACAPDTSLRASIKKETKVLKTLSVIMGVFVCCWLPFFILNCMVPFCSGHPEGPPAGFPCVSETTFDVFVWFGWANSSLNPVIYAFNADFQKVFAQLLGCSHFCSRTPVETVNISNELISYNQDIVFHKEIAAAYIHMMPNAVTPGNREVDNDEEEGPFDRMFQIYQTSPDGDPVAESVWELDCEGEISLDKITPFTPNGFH
Protocol: as §1

hD2long = hD2long (Homo sapiens, UniProt P14416); test: competitive radioligand binding, hD2long; details: [^3H] spiperone
Sequence of hD2long (P14416 whole entry): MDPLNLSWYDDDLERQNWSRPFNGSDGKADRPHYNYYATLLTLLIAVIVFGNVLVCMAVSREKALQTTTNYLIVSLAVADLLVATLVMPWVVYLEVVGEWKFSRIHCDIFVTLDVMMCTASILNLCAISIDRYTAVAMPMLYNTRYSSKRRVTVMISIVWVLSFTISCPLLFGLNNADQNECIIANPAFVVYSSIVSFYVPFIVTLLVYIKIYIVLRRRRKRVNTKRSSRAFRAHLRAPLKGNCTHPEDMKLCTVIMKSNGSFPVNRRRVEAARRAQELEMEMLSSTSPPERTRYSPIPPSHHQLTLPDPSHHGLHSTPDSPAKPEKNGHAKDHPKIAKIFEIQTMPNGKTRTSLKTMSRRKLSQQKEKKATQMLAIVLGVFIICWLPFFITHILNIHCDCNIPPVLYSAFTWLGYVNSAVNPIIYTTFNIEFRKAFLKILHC
Protocol: as §1

hD2short = hD2short (Homo sapiens, UniProt P14416); test: competitive radioligand binding, hD2short; details: [^3H] spiperone
Sequence of hD2short (P14416 1-414 isoform P14416-2): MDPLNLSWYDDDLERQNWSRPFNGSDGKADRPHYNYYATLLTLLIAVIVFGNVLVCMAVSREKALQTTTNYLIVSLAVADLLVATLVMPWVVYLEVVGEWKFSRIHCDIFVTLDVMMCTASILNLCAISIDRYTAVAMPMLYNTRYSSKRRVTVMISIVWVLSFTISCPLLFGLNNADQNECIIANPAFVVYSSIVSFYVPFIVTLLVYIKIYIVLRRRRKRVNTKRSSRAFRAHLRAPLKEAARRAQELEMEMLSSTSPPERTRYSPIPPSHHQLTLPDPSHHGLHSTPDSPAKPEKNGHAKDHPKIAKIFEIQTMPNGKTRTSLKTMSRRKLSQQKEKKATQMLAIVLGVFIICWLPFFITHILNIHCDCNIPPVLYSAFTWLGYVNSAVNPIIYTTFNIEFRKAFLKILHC
Protocol: as §1

hD3 = hD3 (Homo sapiens, UniProt P35462); test: competitive radioligand binding, hD3; details: [^3H] spiperone
Sequence of hD3 (P35462 whole entry): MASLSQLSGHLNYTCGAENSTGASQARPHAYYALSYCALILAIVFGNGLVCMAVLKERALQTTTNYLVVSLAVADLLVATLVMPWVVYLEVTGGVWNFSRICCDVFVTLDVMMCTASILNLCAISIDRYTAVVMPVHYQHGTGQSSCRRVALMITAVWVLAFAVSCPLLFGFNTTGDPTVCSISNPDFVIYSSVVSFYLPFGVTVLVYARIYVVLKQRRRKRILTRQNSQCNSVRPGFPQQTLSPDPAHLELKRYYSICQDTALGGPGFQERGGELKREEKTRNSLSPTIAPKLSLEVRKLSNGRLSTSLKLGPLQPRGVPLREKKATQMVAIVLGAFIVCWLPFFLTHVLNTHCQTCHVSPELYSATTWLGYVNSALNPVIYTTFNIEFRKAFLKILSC
Protocol: as §1

hD4.4 = target: T1, hD4.4 (Homo sapiens, UniProt P21917); test: competitive radioligand binding, hD4.4; details: [^3H] spiperone
T1 sequence (P21917 1-419): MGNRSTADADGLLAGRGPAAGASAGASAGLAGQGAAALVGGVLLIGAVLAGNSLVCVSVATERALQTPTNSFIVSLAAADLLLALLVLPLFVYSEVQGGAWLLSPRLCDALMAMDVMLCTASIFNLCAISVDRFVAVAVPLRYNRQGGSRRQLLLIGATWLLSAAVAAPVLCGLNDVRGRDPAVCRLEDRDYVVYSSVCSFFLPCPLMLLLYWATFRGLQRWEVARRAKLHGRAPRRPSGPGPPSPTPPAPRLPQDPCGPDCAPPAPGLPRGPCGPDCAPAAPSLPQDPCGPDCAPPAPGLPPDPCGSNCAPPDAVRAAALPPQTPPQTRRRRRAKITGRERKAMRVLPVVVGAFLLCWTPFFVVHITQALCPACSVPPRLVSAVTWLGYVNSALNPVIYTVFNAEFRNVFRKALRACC
Protocol: as §1

p5-HT1A = target: T2, p5-HT1A (Sus scrofa, UniProt A0A4X1UTF5); test: competitive radioligand binding, p5-HT1A; details: [^3H] WAY600135
T2 sequence (A0A4X1UTF5 1-422): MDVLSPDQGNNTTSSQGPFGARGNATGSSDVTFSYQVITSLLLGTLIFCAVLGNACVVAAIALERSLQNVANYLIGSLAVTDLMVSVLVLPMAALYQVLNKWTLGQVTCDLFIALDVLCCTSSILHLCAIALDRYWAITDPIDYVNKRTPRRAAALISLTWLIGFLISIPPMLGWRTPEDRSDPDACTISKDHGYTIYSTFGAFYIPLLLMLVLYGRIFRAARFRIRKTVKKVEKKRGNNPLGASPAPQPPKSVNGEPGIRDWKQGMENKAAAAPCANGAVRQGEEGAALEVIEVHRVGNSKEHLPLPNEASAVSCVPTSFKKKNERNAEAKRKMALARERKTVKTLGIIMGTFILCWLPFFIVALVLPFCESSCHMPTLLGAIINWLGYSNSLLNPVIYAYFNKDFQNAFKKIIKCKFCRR
Protocol: as §1

h5-HT2 = h5-HT2 (Homo sapiens, UniProt P28223); test: competitive radioligand binding, h5-HT2; details: [^3H] ketanserin
Sequence of h5-HT2 (P28223 whole entry): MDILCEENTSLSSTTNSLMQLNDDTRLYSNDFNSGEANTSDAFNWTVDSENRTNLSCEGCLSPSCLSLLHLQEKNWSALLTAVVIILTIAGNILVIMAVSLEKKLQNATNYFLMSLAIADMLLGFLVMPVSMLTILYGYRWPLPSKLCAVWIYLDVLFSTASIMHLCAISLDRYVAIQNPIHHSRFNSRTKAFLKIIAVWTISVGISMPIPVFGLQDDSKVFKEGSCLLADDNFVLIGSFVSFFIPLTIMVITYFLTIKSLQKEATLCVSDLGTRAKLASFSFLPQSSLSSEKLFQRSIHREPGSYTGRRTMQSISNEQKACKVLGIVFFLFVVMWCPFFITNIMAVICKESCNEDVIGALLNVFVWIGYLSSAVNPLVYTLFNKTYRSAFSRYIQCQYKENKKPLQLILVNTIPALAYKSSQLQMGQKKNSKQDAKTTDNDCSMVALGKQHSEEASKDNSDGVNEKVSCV
Protocol: as §1

pα1 = test: competitive radioligand binding, pα1; details: [^3H] prazosine
[1] = Stability in human plasma; type: in vitro ADME; details: 37° C., up to 7 days
Protocol: An aliquot of ^177Lu-14 (FAUC Lu469) in PBS (50 μL) was added to human plasma (200 μL) and incubated at 37° C. Aliquots (25 μL) were taken at various time intervals (1 h, 4 h, 24 h, 96 h, 7 days) and quenched with acetonitrile/0.1% TFA (1:1, 100 μL). The samples were centrifuged, and the supernatants were analyzed by radio-HPLC.

[2] = Determination of partition coefficient (log D7.4); type: physicochemical; details: 1-octanol/PBS pH 7.4, room temperature
Protocol: The lipophilicity of ^177Lu-14 (FAUC Lu469) was assessed by determination of the water-octanol partition coefficient. 1-Octanol (0.5 mL) was added to a solution of approximately 25 kBq of ^177Lu-14 in PBS (0.5 mL, pH 7.4) and the layers were vigorously mixed for 3 min at room temperature. The tubes were centrifuged (14000 rpm, 1 min) and three samples of 100 μL of each layer were counted in a γ-counter (Wallac Wizard). The partition coefficient was determined by calculating the ratio cpm (octanol)/cpm (PBS) and expressed as log D74) log(cpmoctanol/cpmbuffer). The experiments were performed in triplicates. The log D7.4 value was determined to be −1.8±0.1 (mean value±standard deviation, n=6).

[3] = Biodistribution in xenografted nude mice, normal tissue; type: in vivo, Athymic nude mice (nu/nu); details: i.v.
Protocol: (§2) Athymic nude mice (nu/nu) were obtained from Harlan Winkelmann GmbH (Borchen, Germany) at 4 weeks of age and were kept under standard conditions (12 h light/dark) with food and water available ad libitum. AsPC-1, PC-3 or HT29 cells were harvested and suspended in sterile PBS at a concentration of 2×10^7 cells/ml. Viable cells (2×10^6) in PBS (100 μL) were injected subcutaneously in the back. Two weeks after inoculation (tumor weight: 400-800 mg), the mice (about 10-12 weeks old with about 40 g body weight) were used for biodistribution studies.
(§3) The xenografted mice were injected with ^177Lu-14 (FAUC Lu469, 1 MBq/mouse) intravenously into the tail vein. The mice were sacrificed by cervical dislocation at 24 h and 48 h post-injection (p.i.). Tumors and other tissues (blood, lung, liver, kidneys, heart, brain, muscle and intestine) were removed and weighed. Radioactivity of the dissected tissues was determined using a γ-counter. Results were expressed as percentage of injected dose per gram of tissue (% ID/g), and tumor-to-organ ratios were calculated. Results are reported as percent injected dose per gram (% ID/g) in Table 2 and FIG. 1.

HT29 = test: Biodistribution in xenografted nude mice, HT29 tumor uptake; type: in vivo, Athymic nude mice (nu/nu); details: i.v.
Protocol: as §2, §3

PC3 = test: Biodistribution in xenografted nude mice, PC3 tumor uptake; type: in vivo, Athymic nude mice (nu/nu); details: i.v.
Protocol: as §2, §3

AsPC1 = test: Biodistribution in xenografted nude mice, AsPC1 tumor uptake; type: in vivo, Athymic nude mice (nu/nu); details: for Uptake AsPC1 tumor: i.v.
Protocol: as §2
as §3, with “The mice were sacrificed by cervical dislocation at 24 h and 48 h post-injection (p.i.).” left out

PC1-3 tumors = test: Therapy study, PC1-3 tumors, single-dose administration; type: in vivo, Nude mice; details: single dose 30±9 MBq/animal
Protocol: Nude mice bearing PC1-3 tumors at the back were used for the therapy study. One week after inoculation of the PC1-3 cells, ^177Lu-14 (FAUC Lu469) was injected in four mice at a dose of 30±9 MBq/animal. Eight additional animals were injected with saline as control animals. The body weight and the tumor diameter was measured every three days. […] The tumor inhibition growth factor was 64% after 49 days.

[4] = system: AsPC-1 tumors (human pancreas adenocarcinoma); test: Therapy study, AsPC-1 tumors, single-dose and double-dose administration; type: in vivo, Nude mice
Protocol: Nude mice bearing AsPC-1 tumors (human pancreas adenocarcinoma) at the back were used for the therapy study. One week after inoculation of the AsPC-1 cells, six mice were injected with a single dose of ^177Lu-14 (FAUC Lu469) (28±6 MBq/animal, group B, single-dose administration) at day 0 and another six animals were injected with a double-dose of ^177Lu-14 (FAUC Lu469) (2×29±4 MBq/animal, group C, double-dose administration), consisting of the first dose (29 MBq/animal) at the starting day of radiotherapy (day 0) and the second dose (29 MBq/animal) at day 10 after begin of treatment. Six additional animals were injected with saline as untreated control animals (group A). The body weight and the tumor diameter were measured five times a week.

Sequence of hNTS1 (P30989 whole entry): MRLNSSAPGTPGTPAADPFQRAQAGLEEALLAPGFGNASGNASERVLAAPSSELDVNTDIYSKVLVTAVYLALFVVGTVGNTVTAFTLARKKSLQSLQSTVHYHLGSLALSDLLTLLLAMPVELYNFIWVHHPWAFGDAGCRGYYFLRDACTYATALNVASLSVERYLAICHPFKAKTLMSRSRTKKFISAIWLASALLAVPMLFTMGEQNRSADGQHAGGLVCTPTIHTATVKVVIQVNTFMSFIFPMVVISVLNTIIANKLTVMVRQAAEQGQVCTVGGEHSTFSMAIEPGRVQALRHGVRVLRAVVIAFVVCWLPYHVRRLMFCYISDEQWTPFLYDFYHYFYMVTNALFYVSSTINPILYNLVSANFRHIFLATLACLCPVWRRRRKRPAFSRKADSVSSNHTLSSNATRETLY

SMILES: COc1cccc(OC)c1-c1cc(C(=O)NC2(C(=O)O)C3CC4CC(C3)CC2C4)nn1-c1ccc(-c2cn(CCCN(C)CCCNC(=O)CN3CCN(CC(=O)O)CCN(CC(=O)O)CCN(CC(=O)O)CC3)nn2)cc1C(C)C (stereo not drawn) [Compound 13]
- Ki (hNTS1): 1.9 nM
- Ki (hNTS2): 100 nM

SMILES: COc1cccc(OC)c1-c1cc(C(=O)NC2(C(=O)O)C3CC4CC(C3)CC2C4)nn1-c1ccc(-c2cn(CCCN(C)C[C@@H](O)CNC(=O)CN3CCN(CC(=O)O)CCN(CC(=O)O)CCN(CC(=O)O)CC3)nn2)cc1C(C)C (stereo partly drawn) [Compound 19]
- Ki (hNTS1): 1.6 nM
- Ki (hNTS2): 59 nM

SMILES: COc1cccc(OC)c1-c1cc(C(=O)NC2(C(=O)O)C3CC4CC(C3)CC2C4)nn1-c1ccc(-c2cn(CCCN(C)CCCNC(=O)CN3CCN4CCN5CCN(CC3)CC(=O)[O][177Lu]([O]C(=O)C4)[O]C(=O)C5)nn2)cc1C(C)C (stereo not drawn) [^177Lu-14]
- Stability in human plasma (degradation products by radio-HPLC) [1]: No degradation products were observed
- log D7.4 [2]: −1.8±0.1
- Uptake blood ([3]; 24 h p.i.): 0.36 % ID/g
- Uptake blood ([3]; 48 h p.i.): 0.14 % ID/g
- Uptake brain ([3]; 24 h p.i.): 0.06 % ID/g
- Uptake brain ([3]; 48 h p.i.): 0.04 % ID/g
- Uptake femur ([3]; 24 h p.i.): 0.89 % ID/g
- Uptake femur ([3]; 48 h p.i.): 0.75 % ID/g
- Uptake heart ([3]; 24 h p.i.): 1.05 % ID/g
- Uptake heart ([3]; 48 h p.i.): 0.56 % ID/g
- Uptake intestine ([3]; 24 h p.i.): 1.40 % ID/g
- Uptake intestine ([3]; 48 h p.i.): 0.77 % ID/g
- Uptake kidney ([3]; 24 h p.i.): 4.54 % ID/g
- Uptake kidney ([3]; 48 h p.i.): 2.48 % ID/g
- Uptake liver ([3]; 24 h p.i.): 11.61 % ID/g
- Uptake liver ([3]; 48 h p.i.): 5.45 % ID/g
- Uptake lung ([3]; 24 h p.i.): 4.15 % ID/g
- Uptake lung ([3]; 48 h p.i.): 1.23 % ID/g
- Uptake muscle ([3]; 24 h p.i.): 0.29 % ID/g
- Uptake muscle ([3]; 48 h p.i.): 0.19 % ID/g
- Uptake spleen ([3]; 24 h p.i.): 2.40 % ID/g
- Uptake spleen ([3]; 48 h p.i.): 1.60 % ID/g
- Uptake HT29 tumor (HT29; 24 h p.i.): 18.64 % ID/g
- Uptake HT29 tumor (HT29; 48 h p.i.): 16.34 % ID/g
- Uptake PC3 tumor (PC3; 24 h p.i.): 15.57 % ID/g
- Uptake PC3 tumor (PC3; 48 h p.i.): 10.85 % ID/g
- Uptake AsPC1 tumor (AsPC1; 24 h p.i.): 22.36 % ID/g
- Uptake AsPC1 tumor (AsPC1; 48 h p.i.): 14.41 % ID/g
- AsPC1-tumor retention (AsPC1; day 7 p.i.): 13.2±2.1 % ID/g
- tumor inhibition growth factor (PC1-3 tumors; after 49 days): 64%
- survival versus untreated control animals (PC1-3 tumors): significantly longer survival
- tumor growth and tumor size versus untreated control animals (PC1-3 tumors): significantly inhibited tumor growth and a reduction in tumor size
- longer survival than untreated control animals ([4]; double-dose 2×29±4 MBq/animal (group C), day 0 and day 10): +209%
- tumor growth and tumor size versus untreated control animals ([4]; single dose 28±6 MBq/animal (group B), between day 11 and 21, adjusted p=0.049): significant tumor growth inhibition and a reduction in tumor size

Other lines, results leading:

- Ki (hNTS1): 0.19 nM
- Ki (hNTS2): 13 nM
- Ki (hD1): > 50000 nM
- Ki (hD5): > 50000 nM
- Ki (hD2long): > 50000 nM
- Ki (hD2short): > 50000 nM
- Ki (hD3): > 50000 nM
- Ki (hD4.4): > 50000 nM
- Ki (p5-HT1A): > 50000 nM
- Ki (h5-HT2): > 50000 nM
- Ki (pα1): > 50000 nM
SMILES: COc1cccc(OC)c1-c1cc(C(=O)NC2(C(=O)O)C3CC4CC(C3)CC2C4)nn1-c1ccc(-c2cn(CCCN(C)CCCNC(=O)CN3CCN(CC(=O)[O-])CCN(CC(=O)[O-])CCN(CC(=O)[O-])CC3)nn2)cc1C(C)C.[Lu+3] (stereo not drawn) [Compound 14]

- Ki (hNTS1): 1.4 nM
- Ki (hNTS2): 27 nM
SMILES: COc1cccc(OC)c1-c1cc(C(=O)NC2(C(=O)O)C3CC4CC(C3)CC2C4)nn1-c1ccc(-c2cn(CCCN(C)C[C@@H](O)CNC(=O)CN3CCN(CC(=O)[O-])CCN(CC(=O)[O-])CCN(CC(=O)[O-])CC3)nn2)cc1C(C)C.[Lu+3] (stereo partly drawn) [Compound 20]
